The target of the assay is T1, SGK1 (Homo sapiens, UniProt O00141).
T1 sequence (O00141 1-431): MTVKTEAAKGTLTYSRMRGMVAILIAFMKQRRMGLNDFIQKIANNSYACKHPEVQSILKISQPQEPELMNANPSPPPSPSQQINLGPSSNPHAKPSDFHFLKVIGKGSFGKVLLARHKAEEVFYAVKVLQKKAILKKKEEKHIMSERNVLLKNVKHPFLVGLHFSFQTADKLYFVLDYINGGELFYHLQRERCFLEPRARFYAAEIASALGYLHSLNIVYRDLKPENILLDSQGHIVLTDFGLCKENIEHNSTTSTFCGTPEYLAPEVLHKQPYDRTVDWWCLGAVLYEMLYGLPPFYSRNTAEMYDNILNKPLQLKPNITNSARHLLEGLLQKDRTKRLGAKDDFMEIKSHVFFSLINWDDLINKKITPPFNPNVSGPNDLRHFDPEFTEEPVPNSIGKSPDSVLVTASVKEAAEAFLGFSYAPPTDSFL
Nature of the assay: SGK1 inhibition Assay B (Echo mass spectrometry of phosphorylated peptide product). As to conditions: 60 min at room temperature. In kind it is biochemical.

By IC50 is commonly meant the concentration that inhibits the measured activity by half. For the compound `CCC1=C(c2cc(N3CCC[C@@H](NC(=O)c4sc(C)nc4OC4CCC(NC5CC5)CC4)C3)c3c(N)ncnn23)COC1=O` (stereo partly drawn) [Example 1022, (R)-N-(1-(4-amino-7-(4-ethyl-5-oxo-2,5-dihydrofuran-3-yl)pyrrolo[2,1-f][1,2,4]triazin-5-yl)piperidin-3-y1)-4-((4-(cyclopropylamino)cyclohexyl)oxy)-2-methylthiazole-5-carboxamide], the IC50 was 1.3 nM.
`Cc1nc(OC2CCC(NC(C)(C)C)CC2)c(C(=O)N[C@@H]2CCCN(c3cc(-c4ccc(S(C)(=O)=O)cn4)n4ncnc(N)c34)C2)s1` (stereo partly drawn) [Example 1026, (R)—N-(1-(4-amino-7-(5-(methylsulfonyl)pyridin-2-yl)pyrrolo[2,1-f][1,2,4]triazin-5-yl)piperidin-3-yl)-4-((4-(tert-butylamino)cyclohexyl)oxy)-2-methylthiazole-5-carboxamide] returned a half-inhibitory concentration (IC50) of 2.2 nM.
Regarding `COc1nccc(-c2cc(N3CCC[C@@H](NC(=O)c4sc(C)nc4O[C@H]4CC[C@@H](N(C)C)CC4)C3)c3c(N)ncnn23)n1` [Example 1028, N—((R)-1-(4-amino-7-(2-methoxypyrimidin-4-yl)pyrrolo[2,1-f][1,2,4]triazin-5-yl)piperidin-3-yl)-4-(((1S,4S)-4-(dimethylamino)cyclohexyl)oxy)-2-methylthiazole-5-carboxamide], inhibition was half-maximal at 1.7 nM (IC50).
Consider `COc1nccc(-c2cc(N3CCC[C@@H](NC(=O)c4sc(C)nc4O[C@H]4CC[C@@H](N5CCCC5)CC4)C3)c3c(N)ncnn23)n1` [Example 1029, N—((R)-1-(4-amino-7-(2-methoxypyrimidin-4-yl)pyrrolo[2,1-f][1,2,4]triazin-5-yl)piperidin-3-yl)-2-methyl-4-(((1s,4S)-4-(pyrrolidin-1-yl)cyclohexyl)oxy)thiazole-S-carboxamidemorpholinothiophene-2-carboxamide], for which the half-inhibitory concentration (IC50) came to 0.1 nM.
Take `CCC(C)(C)N[C@H]1CC[C@@H](Oc2nc(C)sc2C(=O)N[C@@H]2CCCN(c3cc(-c4ccnc(OC)n4)n4ncnc(N)c34)C2)CC1` [Example 1030, (R)—N-(1-(4-amino-7-(2-methoxypyrimidin-4-yl)pyrrolo[2,1-f][1,2,4]triazin-5-yl)piperidin-3-yl)-2-methyl-4-((4-(tert-pentylamino)cyclohexyl)oxy)thiazole-5-carboxamide]: half-maximal inhibition (IC50) was put at 0.9 nM.
The value for `[2H]C([2H])([2H])N(C1CCC(Oc2nc(C)sc2C(=O)N[C@@H]2CCCN(c3cc(-c4ccnc(OC)n4)n4ncnc(N)c34)C2)CC1)C([2H])([2H])[2H]` (stereo partly drawn) [Example 1031, (R)—N-(1-(4-amino-7-(2-methoxypyrimidin-4-yl)pyrrolo[2,1-f][1,2,4]triazin-5-yl)piperidin-3-yl)-4-((4-(bis(methyl-d3)amino)cyclohexyl)oxy)-2-methylthiazole-5-carboxamide] was 1.1 nM; that for `[2H]C([2H])([2H])N(C1CCC(Oc2nc(C)sc2C(=O)N[C@@H]2CCCN(c3cc(-c4ccnc(OC)n4)n4ncnc(N)c34)C2)CC1)C([2H])([2H])[2H]` (stereo partly drawn) [Example 1032, (R)—N-(1-(4-amino-7-(2-methoxypyrimidin-4-yl)pyrrolo[2,1-f][1,2,4]triazin-5-yl)piperidin-3-yl)-4-((4-(bis(methyl-d3)amino)cyclohexyl)oxy)-2-methylthiazole-5-carboxamide] was 1.2 nM; that for `[2H]C([2H])([2H])Oc1nccc(-c2cc(N3CCC[C@@H](NC(=O)c4sc(C)nc4O[C@H]4CC[C@@H](N(C)C)CC4)C3)c3c(N)ncnn23)n1` [Example 1033, N—((R)-1-(4-amino-7-(2-(methoxy-d3)pyrimidin-4-yl)pyrrolo[2,1-f][1,2,4]triazin-5-yl)piperidin-3-yl)-4-(((1S,4S)-4-(dimethylamino)cyclohexyl)oxy)-2-methylthiazole-5-carboxamide] was 1 nM.
In turn, `Cc1nccc(-c2cc(N3CCC[C@@H](NC(=O)c4sc(C)nc4O[C@H]4CC[C@@H](N(C)C)CC4)C3)c3c(N)ncnn23)n1` [Example 1035, N—((R)-1-(4-amino-7-(2-methylpyrimidin-4-yl)pyrrolo[2,1-f][1,2,4]triazin-5-yl)piperidin-3-yl)-4-(((1S,4S)-4-(dimethylamino)cyclohexyl)oxy)-2-methylthiazole-5-carboxamide] returned an IC50 of 0.8 nM.
The compound `Cc1nccc(-c2cc(N3CCC[C@@H](NC(=O)c4sc(C)nc4O[C@H]4CC[C@@H](NC(C)C)CC4)C3)c3c(N)ncnn23)n1` [Example 1036, N—((R)-1-(4-amino-7-(2-methylpyrimidin-4-yl)pyrrolo[2,1-f][1,2,4]triazin-5-yl)piperidin-3-yl)-4-(((1S,4S)-4 (isopropylamino)cyclohexyl)oxy)-2-methylthiazole-5-carboxamide] registered an IC50 of 0.1 nM.
The value for `Cc1nccc(-c2cc(N3CCC[C@@H](NC(=O)c4sc(C)nc4OC4CCC(N5CCC5)CC4)C3)c3c(N)ncnn23)n1` (stereo partly drawn) [Example 1037, N—((R)-1-(4-amino-7-(2-methylpyrimidin-4-yl)pyrrolo[2,1-f][1,2,4]triazin-5-yl)piperidin-3-yl)-4-(((1S,4S)-4-(azetidin-1-yl)cyclohexyl)oxy)-2-methylthiazole-5-carboxamide] was 1.2 nM; that for `COc1cc(-c2cc(N3CCC[C@@H](NC(=O)c4sc(C)nc4OC4CCC(N5CCC5)CC4)C3)c3c(N)ncnn23)ccn1` (some centres unmarked) [Example 1038] was 0.9 nM; that for `Cc1nc(OC2CCC(N3CC(O)C3)CC2)c(C(=O)N[C@@H]2CCCN(c3cc(-c4ccc(C(N)=O)c(F)c4)n4ncnc(N)c34)C2)s1` (stereo partly drawn) [Example 1039, (R)—N-(1-(4-amino-7-(4-carbamoyl-3-fluorophenyl)pyrrolo[2,1-f][1,2,4]triazin-5-yl)piperidin-3-yl)-4-((4-(3-hydroxyazetidin-1-yl)cyclohexyl)oxy)-2-methylthiazole-5-carboxamide] was 0.9 nM.
The value for `COC[C@@H](C)NC1CCC(Oc2nc(C)sc2C(=O)N[C@@H]2CCCN(c3cc(-c4ccc(C(N)=O)c(F)n4)n4ncnc(N)c34)C2)CC1` (some centres unmarked) [Example 1040] was 1.7 nM; that for `Cc1nc(OC2CCC(N3CCC3)CC2)c(C(=O)N[C@@H]2CCCN(c3cc(-c4ccc(C(N)=O)c(F)n4)n4ncnc(N)c34)C2)s1` (stereo partly drawn) [Example 1041, (R)—N-(1-(4-amino-7-(5-carbamoyl-6-fluoropyridin-2-yl)pyrrolo[2,1-f][1,2,4]triazin-5-yl)piperidin-3-yl)-4-((4-(azetidin-1-yl)cyclohexyl)oxy)-2-methylthiazole-5-carboxamide] was 1.7 nM; that for `COc1nc(-c2cc(N3CCC[C@@H](NC(=O)c4sc(C)nc4OC4CCC(N5CCC[C@@H]5C)CC4)C3)c3c(N)ncnn23)ccc1C(N)=O` (stereo partly drawn) [Example 1043, N—((R)-1-(4-amino-7-(5-carbamoyl-6-methoxypyridin-2-yl)pyrrolo[2,1-f] [1,2,4]triazin-5-yl)piperidin-3-yl)-2-methyl-4-((4-((S)-2-methylpyrrolidin-1-yl)cyclohexyl)oxy) thiazole-5-carboxamide] was 2.1 nM.
`COc1nc(-c2cc(N3CCC[C@@H](NC(=O)c4sc(C)nc4OC4CCC(N5CCC[C@H]5C)CC4)C3)c3c(N)ncnn23)ccc1C(N)=O` (stereo partly drawn) [Example 1044, N—((R)-1-(4-amino-7-(5-carbamoyl-6-methoxypyridin-2-yl)pyrrolo[2,1-f][1,2,4]triazin-5-yl)piperidin-3-yl)-2-methyl-4-((4-((R)-2-methylpyrrolidin-1-yl)cyclohexyl)oxy)thiazole-5-carboxamide] gave a concentration for half-maximal inhibition (IC50) of 2.8 nM.
In turn, `COc1nc(-c2cc(N3CCC[C@@H](NC(=O)c4sc(C)nc4OC4CCC(N5CCC5)CC4)C3)c3c(N)ncnn23)ccc1C(N)=O` (stereo partly drawn) [Example 1045, (R)—N-(1-(4-amino-7-(5-carbamoyl-6-methoxypyridin-2-yl)pyrrolo[2,1-f][1,2,4]triazin-5-yl)piperidin-3-yl)-4-((4-(azetidin-1-yl)cyclohexyl)oxy)-2-methylthiazole-5-carboxamide] gave an IC50 of 0.5 nM.
Take `Cc1cc(-c2cc(N3CCC[C@@H](NC(=O)c4sc(C)nc4O[C@H]4CC[C@@H](N(C)C)CC4)C3)c3c(N)ncnn23)cnn1` [Example 1046]: half-maximal inhibition (IC50) required 16 nM.
The compound `Cc1cc(-c2cc(N3CCC[C@@H](NC(=O)c4sc(C)nc4OC4CCC(N5CCC5)CC4)C3)c3c(N)ncnn23)cnn1` (stereo partly drawn) [Example 1047, N—((R)-1-(4-amino-7-(6-methylpyridazin-4-yl)pyrrolo[2,1-f][1,2,4]triazin-5-yl)piperidin-3-yl)-4-((4-(azetidin-1-yl)cyclohexyl)oxy)-2-methylthiazole-5-carboxamide] showed an IC50 of 9.9 nM.
The value for `Cc1nc(OC2CCC(N3CC(O)C3)CC2)c(C(=O)N[C@@H]2CCCN(c3cc(C#N)n4ncnc(N)c34)C2)s1` (stereo partly drawn) [Example 1048, (R)—N-(1-(4-amino-7-cyanopyrrolo[2,1-f][1,2,4]triazin-5-yl)piperidin-3-yl)-4-((4-(3-hydroxyazetidin-1-yl)cyclohexyl)oxy)-2-methylthiazole-5-carboxamide] was 3.1 nM.
`Cc1nc(OC2CCC(N3CCC3)CC2)c(C(=O)N[C@@H]2CCCN(c3cc(C#N)n4ncnc(N)c34)C2)s1` (stereo partly drawn) [Example 1049, (R)—N-(1-(4-amino-7-cyanopyrrolo[2,1-f][1,2,4]triazin-5-yl)piperidin-3-yl)-4-((4-(azetidin-1-yl)cyclohexyl)oxy)-2-methylthiazole-5-carboxamide] came in with a 50% inhibitory concentration (IC50) of 1.9 nM.
With `Cc1nc(OC2CCC(N3CCC3)CC2)c(C(=O)N[C@@H]2CCCN(c3cc(-c4csc(C(N)=O)n4)n4ncnc(N)c34)C2)s1` (stereo partly drawn) [Example 1050, (R)-4-(4-amino-5-(3-(4-((4-(azetidin-1-yl)cyclohexyl)oxy)-2-methylthiazole-5-carboxamido)piperidin-1-yl)pyrrolo[2,1-f][1,2,4]triazin-7-yl)thiazole-2-carboxamide], it took 0.6 nM to reach half-maximal inhibition (IC50).

These data come from patent US20260250290A1 (BRISTOL-MYERS SQUIBB COMPANY, priority 2023, published 2026).
